According to patent US8513423B2 (Janssen Pharmaceutica, NV, priority 2010, dated 2013):
Like-named read-outs stand apart in the source and are kept apart here.

Tests used:
[1] = target: T1, MGL (Rattus norvegicus, UniProt Q8R431); experiment: 2-AG accumulation assay in rat brain homogenate; assay type: biochemical; details: compound @1 μM, read-out: Rat Brain 2AG % VehCntrl (%) @1 μM
T1 construct: one g rat brain was homogenized; from tissue; host or cells: rat brain homogenate
T1 sequence (Q8R431 1-303): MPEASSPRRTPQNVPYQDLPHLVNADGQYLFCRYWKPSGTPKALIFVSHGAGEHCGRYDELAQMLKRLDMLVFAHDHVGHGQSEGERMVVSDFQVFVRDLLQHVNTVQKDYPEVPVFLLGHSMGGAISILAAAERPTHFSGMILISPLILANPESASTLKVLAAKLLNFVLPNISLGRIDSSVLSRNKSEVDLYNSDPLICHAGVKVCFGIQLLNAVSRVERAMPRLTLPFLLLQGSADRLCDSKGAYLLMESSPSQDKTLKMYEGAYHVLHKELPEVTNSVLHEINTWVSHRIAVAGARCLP
Summary of the method: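 Inhibition of rat MGL was assessed by measuring 2-AG build-up in brain homogenate. After a 15-min preincubation at 37° C., 10 mM CaCl2 was added and the 5 mL reaction ran 15 min more at 37° C. It was quenched with 6 mL 2:1 chloroform/methanol, extracted 2-AG was measured by HPLC/MS, and accumulation with compound was expressed as a percentage of vehicle.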

[2] = target: T2, mutant MGL (Homo sapiens, UniProt Q99685, L169S/L176S); experiment: MGL ThermoFluor assay - mutant; assay type: binding
T2 construct: purified mutant MGL (mut-MGLL 11-313 L179S L186S)
T2 sequence (Q99685 1-303 L169S/L176S): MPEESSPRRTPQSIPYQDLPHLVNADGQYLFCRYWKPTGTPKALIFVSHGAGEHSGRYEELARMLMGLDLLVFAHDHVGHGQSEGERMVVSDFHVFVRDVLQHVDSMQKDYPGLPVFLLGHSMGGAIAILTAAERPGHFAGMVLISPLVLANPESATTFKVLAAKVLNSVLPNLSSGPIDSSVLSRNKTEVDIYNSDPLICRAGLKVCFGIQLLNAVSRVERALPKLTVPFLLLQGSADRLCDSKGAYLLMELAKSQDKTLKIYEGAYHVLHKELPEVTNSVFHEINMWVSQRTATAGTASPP
Summary of the method: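 Thermal shift binding with 0.07 mg/ml L169S/L176S MGL, 100 μM 1,8-ANS, 200 mM NaCl, 0.001% Tween-20, 50 mM PIPES pH 7.0. Heated 40–90 °C at 1 °C/min, fluorescence (em 500 nm) tracked to give Tm; Kd fitted from 11-point concentration–Tm response, qKd when stocks quantified by qNMR.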

[3] = 0.07 mg/ml mutant MGL, pH=7.0, read-out: MGL mutant ThermoFluor Kd
[4] = compound concentration measured by qNMR, read-out: MGL mutant ThermoFluor qKd (using qNMR conc.)

2-AG accumulation, percent of vehicle control at 1 µM [1] [%]	Kd [2, 3] [nM]	Kd [2, 4] [nM]	Structure (SMILES)
800	0.3	1.2	O=C(c1nccs1)N1CCC(C2CN(C(=O)c3sc4cc(C(F)(F)F)ccc4c3Cl)C2)CC1 [Cpd 29, 4-(1-{[3-Chloro-6-(trifluoromethyl)-1-benzothiophen-2-yl]carbonyl}azetidin-3-yl)-1-(1,3-thiazol-2-ylcarbonyl)piperidine]
728	1	1.3	Cc1c(C(=O)N2CC(C3CCN(C(=O)c4nccs4)CC3)C2)sc2cc(C(F)(F)F)ccc12 [Cpd 20, 4-(1-{[3-Methyl-6-(trifluoromethyl)-1-benzothiophen-2-yl]carbonyl}azetidin-3-yl)-1-(1,3-thiazol-2-ylcarbonyl)piperidine]
